According to PMC10584170, “Machine learning-based phenotypic imaging to characterise the targetable biology of Plasmodium falciparum male gametocytes for the development of transmission-blocking antimalarials” (PLOS Pathogens, 2023):
pIC50: −log10 of the molar value. Blank lines part the entries; values can stand above or below the compound they belong to.

Experiments:
HepG2 cells = experiment: HepG2 cytotoxicity counter-screen; conditions: for Mean TOX: mean of the HepG2 TOX50 values
[1] = system: P. falciparum male gametocytes; experiment: PhIDDLI screening assay, 24 h preincubation at 10xIC50, tubulin/DAPI imaging of male gametogenesis; format: cell-based, Plasmodium falciparum NF54; conditions: approximately 10xIC50, fixed 20 min post-induction
Description: Mature gametocytes were treated for 24h with approximately 10xIC50 of test compounds or DMSO as a solvent control. Male gametogenesis was then induced by lowering the temperature from 37°C to ~20°C and adding xanthurenic acid. 20min later, when male gametogenesis (exflagellation) could be expected to peak, all samples were fixed. A sample of non-induced DMSO-treated gametocytes was fixed with 4% paraformaldehyde to provide an unactivated gametocyte control for comparison. The cells were then processed for immunofluorescence using an antibody against alpha-tubulin II and DNA staining with 4′,6-diamidino-2-phenylindole (DAPI) and visualised by fluorescence microscopy. Tubulin-bright cells from each treated sample were imaged and captured at random.
Cells were identified using a semi-automated pipeline established in the ICY BioImageAnalysis (https://icy.bioimageanalysis.org/) protocols module. Images and accompanying bounding boxes representing the outlines of identified cells were then passed to the PhIDDLI pipeline. PhIDDLI consists of several open source image processing and AI/ML modules connected for seamless processing, clustering and visualisation of cellular phenotypes (Fig 3A). […] To focus on the overall cellular phenotype rather than potentially confounding variable immunostaining intensities between experimental replicates, cells were transformed so that the range of staining intensities for each channel were normalised to fall between a 0–255 pixel intensity value. Then, using the Albumentations module (https://albumentations.ai/) to augment the dataset and control for cells in different orientations, each extracted cell image was rotated 90, 180 and 270 degrees and mirrored so that each cell was represented eight different times in the dataset. The augmented images were then passed to the EffcientNet-B1 module (https://github.com/tensorflow/tpu/tree/master/models/official/efficientnet) (a pretrained neural network developed for image processing) which extracted 1,000 distinct numerical features from each individual cell image. The EfficientNet-B1 was selected from amongst the other EfficientNet models due to its input image size (240 pixels) best matching the size of the individual cell images in the dataset, therefore ensuring maximal input data whilst allowing acceptable computation time on a desktop computer. […]
Mature gametocyte cultures were divided into 100 μl “microcultures” in pre-warmed 1.5 ml tubes also containing 100 μl complete culture medium with test compounds at a final concentration of 10xIC50 or 0.5% DMSO as a solvent control. Tubes were gassed and incubated at 37°C for 24 h. The entire compound library was screened once, spread over four different experiments, each with two DMSO control tubes. An 8% formaldehyde solution was prepared by diluting 16% methanol-free formaldehyde in an equal volume of phosphate-buffered saline (PBS). In each experiment, one DMSO control tube was fixed with equal volume of 8% formaldehyde (4% final concentration) at 37°C to provide an “unactivated” gametocyte control. Gametogenesis was then triggered in the remaining DMSO control tube and all compound tubes by adding 10 μl ookinete medium, and they were immediately incubated at room temperature. After 20 min (when exflagellation is maximal), all remaining tubes were fixed for 30 min.
100 μl of the fixed cell suspensions were added to wells of a 24 well plate containing 1ml PBS and a poly-l-lysine-coated glass coverslip.

[2] = system: P. falciparum female gametocytes; experiment: P. falciparum Dual Gamete Formation Assay (PfDGFA), female readout (Pfs25-positive female gametes); format: cell-based, Plasmodium falciparum NF54; conditions: for pIC50: this study, read-out: Pf DGFA IC50 FEM
Procedure, shortened: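 Mature NF54 gametocytes (day 14) were incubated with compound for 24 h at 37°C under 1% O2/3% CO2, then triggered with xanthurenic acid ookinete medium plus Cy3-anti-Pfs25. Exflagellation was imaged by brightfield; after a further 24 h at 28°C, Pfs25-positive female gametes were imaged by fluorescence and counted by automated image analysis.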

[3] = system: P. falciparum protein kinase G (PfPKG); conditions: cited from earlier work
[4] = system: P. berghei ookinete development; experiment: P. berghei Ookinete Development Assay (PbODA); format: cell-based, Plasmodium berghei; conditions: Mean TOX HepG2 over Pb ODA value; GREEN = >10-fold; RED = <10-fold

pIC50 [2]: 5.99
Compound: CC(C)(CNC(=O)[C@H]1CCCCN1)c1nc(-c2ccc(Cl)c(O)c2)c(-c2ccncc2)[nH]1.Cl [TC04]
Mean TOX (HepG2 cells): 40.64 µM | Cellular phenotype of male gametocytes [1]: unactivated phenotype consistent with total arrest of gametogenesis | Cytotox ratio Pf Female [2]: 39.8

Compound: CC(C)(CN)c1nc(-c2ccc(Br)c(O)c2)c(-c2ccncc2)[nH]1.Cl [TC13]
DGFA Tox50 HepG2 (HepG2 cells; HepG2 value reported with the DGFA screen): 100 µM | Mean TOX (HepG2 cells): 64.38 µM | Cellular phenotype of male gametocytes [1]: unactivated phenotype consistent with total arrest of gametogenesis | Cytotox ratio Pf Female [2]: 112.9 | pIC50 [2]: 6.24 | activity against recombinant PfPKG [3]: had activity | Cytotox ratio Pb Ookinete [4]: 38479.3

pIC50 [2]: 6.37
Compound: Cl.NCC1(c2nc(-c3ccc(Cl)c(O)c3)c(-c3ccncc3)[nH]2)CCCCC1 [TC41]
Mean TOX (HepG2 cells): 22.85 µM | Cellular phenotype of male gametocytes [1]: unactivated phenotype consistent with total arrest of gametogenesis | Cytotox ratio Pf Female [2]: 53.2 | Cytotox ratio Pb Ookinete [4]: 14844.9
